In ChEMBL document CHEMBL1201862, “PubChem BioAssay data set” (2004):
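Growth conditions: 96-well plates. Treatment: test compound, 48 hours, 5 concentrations. Analysis: linear interpolation between bracketing concentrations; unreached endpoints set to highest concentration. Here, GI50 denotes the concentration required for 50% inhibition of growth.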 The source made the active and inactive calls. Rule as the data show it: active = GI50 up to about 1.1 µM and inactive = higher.

Columns and labels:
Experiment in all cases: NCI tumour cell line growth inhibition, 48 h
Hs-578T = system: Hs-578T
M14 = system: M14
U-251 = system: U-251
HOP-62 = system: HOP-62
CAKI-1 = system: CAKI-1
MDA-MB-435 = system: MDA-MB-435
HCT-15 = system: HCT-15
CCRF-CEM = system: CCRF-CEM
PC-3 = system: PC-3
OVCAR-3 = system: OVCAR-3
SW-620 = system: SW-620
EKVX = system: EKVX
K562 = system: K562
HT-29 = system: HT-29
IGROV-1 = system: IGROV-1
OVCAR-8 = system: OVCAR-8
SR = system: SR
SF-295 = system: SF-295
SK-MEL-28 = system: SK-MEL-28
SK-MEL-2 = system: SK-MEL-2

| Structure (SMILES) | GI50 (Hs-578T) | GI50 (M14) | GI50 (U-251) | GI50 (HOP-62) | GI50 (CAKI-1) | GI50 (MDA-MB-435) | GI50 (HCT-15) [µM] | GI50 (CCRF-CEM) | GI50 (PC-3) | GI50 (OVCAR-3) | GI50 (SW-620) | GI50 (EKVX) | GI50 (K562) | GI50 (HT-29) | GI50 (IGROV-1) | GI50 (OVCAR-8) | GI50 (SR) | GI50 (SF-295) | GI50 (SK-MEL-28) | GI50 (SK-MEL-2) |
| --- | --- | --- | --- | --- | --- | --- | --- | --- | --- | --- | --- | --- | --- | --- | --- | --- | --- | --- | --- | --- |
| COC(=O)c1ccc2c(O)c(O)ccc2c1 | 27 µM (inactive) | 16.4 µM (inactive) | 14.4 µM (inactive) | 18.9 µM (inactive) | 25.1 µM (inactive) | 1.87 µM (inactive) | 13.6 | 2.69 µM (inactive) | 5.6 µM (inactive) | 7 µM (inactive) | 12.1 µM (inactive) | 22.8 µM (inactive) | 2.36 µM (inactive) | 17.1 µM (inactive) | 17.2 µM (inactive) | 16.1 µM (inactive) | 2.6 µM (inactive) | 6.98 µM (inactive) | 16.3 µM (inactive) | 1.18 µM (inactive) |
| C(=N\CCCN1CCN(CCC/N=C/c2cccc3ccccc23)CC1)/c1cccc2ccccc12 | 18.8 µM (inactive) | 8.99 µM (inactive) | 36.2 µM (inactive) | > 100 µM (inactive) | > 100 µM (inactive) | 14.5 µM (inactive) | 34.8 | 52.7 µM (inactive) | > 100 µM (inactive) | > 100 µM (inactive) | 64.9 µM (inactive) | 71.8 µM (inactive) | 26.4 µM (inactive) | 45.3 µM (inactive) | > 100 µM (inactive) | > 100 µM (inactive) | 38 µM (inactive) | 57.9 µM (inactive) | 56.4 µM (inactive) | > 100 µM (inactive) |
| CC(Oc1ccccc1)C(=O)NN (stereo not given) | 34.8 µM (inactive) | > 100 µM (inactive) | > 100 µM (inactive) | > 100 µM (inactive) | > 100 µM (inactive) | > 100 µM (inactive) | > 100 | > 100 µM (inactive) | > 100 µM (inactive) | > 100 µM (inactive) | > 100 µM (inactive) | > 100 µM (inactive) | > 100 µM (inactive) | > 100 µM (inactive) | > 100 µM (inactive) | > 100 µM (inactive) | > 100 µM (inactive) | > 100 µM (inactive) | > 100 µM (inactive) | > 100 µM (inactive) |
| CN(C(=O)Cc1cc(Cl)c(Cl)cc1N=C=S)[C@H]1CCCC[C@@H]1N1CCCC1 | 15.5 µM (inactive) | 15.5 µM (inactive) | 14.9 µM (inactive) | 14.2 µM (inactive) | 15.8 µM (inactive) | 6.49 µM (inactive) | 13.6 | 2.07 µM (inactive) | 13.5 µM (inactive) | 15.6 µM (inactive) | 5.47 µM (inactive) | 17.3 µM (inactive) | 2.02 µM (inactive) | 5.94 µM (inactive) | 13.9 µM (inactive) | 14 µM (inactive) | 1.64 µM (inactive) | 16.7 µM (inactive) | 1.39 µM (inactive) | 15.3 µM (inactive) |
| Cc1ccc(NC(=O)C(=O)CC(=O)c2sc(Nc3c(C)cccc3C)nc2C)cc1C | > 100 µM (inactive) | > 100 µM (inactive) | > 100 µM (inactive) | > 100 µM (inactive) | > 100 µM (inactive) | > 100 µM (inactive) | > 100 | > 100 µM (inactive) | > 100 µM (inactive) | > 100 µM (inactive) | > 100 µM (inactive) | > 100 µM (inactive) | > 100 µM (inactive) | > 100 µM (inactive) | > 100 µM (inactive) | > 100 µM (inactive) | 37.3 µM (inactive) | > 100 µM (inactive) | > 100 µM (inactive) | > 100 µM (inactive) |
| CCCCC1NC=Nc2c1ccc1c2[nH]c2ccccc21 (stereo not given) | 2.14 µM (inactive) | 2.41 µM (inactive) | 2.95 µM (inactive) | 5.32 µM (inactive) | 3.77 µM (inactive) | 1.88 µM (inactive) | 2.39 | 1.67 µM (inactive) | 1.69 µM (inactive) | 6.1 µM (inactive) | 1.95 µM (inactive) | 3.8 µM (inactive) | 1.87 µM (inactive) | 1.86 µM (inactive) | 3.08 µM (inactive) | 2.03 µM (inactive) | 1.28 µM (inactive) | 2.48 µM (inactive) | 10.3 µM (inactive) | 3.82 µM (inactive) |
| CC(C)n1c(=O)[nH]n(-c2ccccc2)c1=O | > 100 µM (inactive) | > 100 µM (inactive) | > 100 µM (inactive) | > 100 µM (inactive) | > 100 µM (inactive) | > 100 µM (inactive) | > 100 | > 100 µM (inactive) | > 100 µM (inactive) | > 100 µM (inactive) | > 100 µM (inactive) | > 100 µM (inactive) | > 100 µM (inactive) | > 100 µM (inactive) | > 100 µM (inactive) | > 100 µM (inactive) | > 100 µM (inactive) | > 100 µM (inactive) | > 100 µM (inactive) | > 100 µM (inactive) |
